# From ChEMBL document CHEMBL4257522, “Synthesis and preliminary anti-inflammatory and anti-bacterial evaluation of some diflunisal aza-analogs” (Medchemcomm, 2018)
# The source made the active and inactive calls. The rule behind the calls is not given here.
# How the values were obtained:
# Macrophage cell line [1] = assay: Cytotoxicity against human PBMC-differentiated macrophages treated for 24 hrs followed by compound washout and measured after 48 hrs by MTT assay; type: cell-based
# Macrophage cell line [2] = assay: Antiinflammatory activity in human PBMC-differentiated macrophages assessed as inhibition of LPS-induced IL-8 production at 0.01 to 10 uM measured after 24 hrs by ELISA; type: functional, cell-based
# Macrophage cell line [3] = assay: Antiinflammatory activity in human PBMC-differentiated macrophages assessed as inhibition of LPS-induced prostaglandin production at 0.01 to 10 uM measured after 24 hrs by ELISA; type: functional, cell-based
# Macrophage cell line [4] = assay: Induction of IL-1beta production in human PBMC-differentiated macrophages after 24 hrs by ELISA; type: cell-based
# Macrophage cell line [5] = assay: Induction of prostaglandin production in human PBMC-differentiated macrophages after 24 hrs by ELISA; type: cell-based
# Klebsiella pneumoniae [6] = assay: Toxicity in Klebsiella pneumoniae ATCC 13883 up to 32 uM measured after 16 hrs; type: organism-based
# Enterococcus faecium [7] = assay: Toxicity in Enterococcus faecium ATCC 700221 up to 32 uM measured after 16 hrs; type: organism-based; conditions: in vitro
# Escherichia coli [8] = assay: Toxicity in Escherichia coli ATCC 43894 up to 32 uM measured after 16 hrs; type: organism-based
# Staphylococcus aureus [9] = assay: Potentiation of methicillin-induced antibacterial activity against Staphylococcus aureus ATCC 33592 assessed as minimum modulatory concentration up to 32 uM measured after 16 hrs in presence of MIC/4 methicillin; type: functional; conditions: ATCC 33592, 16 h, read-out: MEC
# Staphylococcus aureus [10] = assay: Potentiation of geneticin-induced antibacterial activity against Staphylococcus aureus ATCC 33592 assessed as minimum modulatory concentration up to 32 uM measured after 16 hrs in presence of MIC/4 geneticin; type: functional; conditions: ATCC 33592, 16 h, read-out: MEC
# Staphylococcus aureus [11] = assay: Potentiation of ciprofloxacin-induced antibacterial activity against Staphylococcus aureus ATCC 33592 assessed as minimum modulatory concentration up to 32 uM measured after 16 hrs in presence of MIC/4 ciprofloxacin; type: functional; conditions: ATCC 33592, 16 h, read-out: MEC
# Staphylococcus aureus [12] = assay: Potentiation of tetracycline-induced antibacterial activity against Staphylococcus aureus ATCC 33592 assessed as minimum modulatory concentration up to 32 uM measured after 16 hrs in presence of MIC/4 tetracycline; type: functional; conditions: ATCC 33592, 16 h, read-out: MEC
# Staphylococcus aureus [13] = assay: Potentiation of erythromycin-induced antibacterial activity against Staphylococcus aureus ATCC 33592 assessed as minimum modulatory concentration up to 32 uM measured after 16 hrs in presence of MIC/4 erythromycin; type: functional; conditions: ATCC 33592, 16 h, read-out: MEC
# Streptococcus pyogenes [14] = assay: Potentiation of methicillin-induced antibacterial activity against Streptococcus pyogenes ATCC 14289 assessed as minimum modulatory concentration up to 32 uM measured after 16 hrs in presence of MIC/4 methicillin; type: functional; conditions: ATCC 14289, 16 h, read-out: MEC
# Streptococcus pyogenes [15] = assay: Potentiation of geneticin-induced antibacterial activity against Streptococcus pyogenes ATCC 14289 assessed as minimum modulatory concentration up to 32 uM measured after 16 hrs in presence of MIC/4 geneticin; type: functional; conditions: ATCC 14289, 16 h, read-out: MEC
# Streptococcus pyogenes [16] = assay: Potentiation of ciprofloxacin-induced antibacterial activity against Streptococcus pyogenes ATCC 14289 assessed as minimum modulatory concentration up to 32 uM measured after 16 hrs in presence of MIC/4 ciprofloxacin; type: functional; conditions: ATCC 14289, 16 h, read-out: MEC
# Streptococcus pyogenes [17] = assay: Potentiation of tetracycline-induced antibacterial activity against Streptococcus pyogenes ATCC 14289 assessed as minimum modulatory concentration up to 32 uM measured after 16 hrs in presence of MIC/4 tetracycline; type: functional; conditions: ATCC 14289, 16 h, read-out: MEC
# Streptococcus pyogenes [18] = assay: Potentiation of erythromycin-induced antibacterial activity against Streptococcus pyogenes ATCC 14289 assessed as minimum modulatory concentration up to 32 uM measured after 16 hrs in presence of MIC/4 erythromycin; type: functional; conditions: ATCC 14289, 16 h, read-out: MEC
# Klebsiella pneumoniae [19] = assay: Potentiation of methicillin-induced antibacterial activity against Klebsiella pneumoniae ATCC 13883 assessed as minimum modulatory concentration up to 32 uM measured after 16 hrs in presence of MIC/4 methicillin; type: functional; conditions: ATCC 13883, 16 h, read-out: MEC
# Klebsiella pneumoniae [20] = assay: Potentiation of geneticin-induced antibacterial activity against Klebsiella pneumoniae ATCC 13883 assessed as minimum modulatory concentration up to 32 uM measured after 16 hrs in presence of MIC/4 geneticin; type: functional; conditions: ATCC 13883, 16 h, read-out: MEC
# Klebsiella pneumoniae [21] = assay: Potentiation of ciprofloxacin-induced antibacterial activity against Klebsiella pneumoniae ATCC 13883 assessed as minimum modulatory concentration up to 32 uM measured after 16 hrs in presence of MIC/4 ciprofloxacin; type: functional; conditions: ATCC 13883, 16 h, read-out: MEC
# Klebsiella pneumoniae [22] = assay: Potentiation of tetracycline-induced antibacterial activity against Klebsiella pneumoniae ATCC 13883 assessed as minimum modulatory concentration up to 32 uM measured after 16 hrs in presence of MIC/4 tetracycline; type: functional; conditions: ATCC 13883, 16 h, read-out: MEC
# Klebsiella pneumoniae [23] = assay: Potentiation of erythromycin-induced antibacterial activity against Klebsiella pneumoniae ATCC 13883 assessed as minimum modulatory concentration up to 32 uM measured after 16 hrs in presence of MIC/4 erythromycin; type: functional; conditions: ATCC 13883, 16 h, read-out: MEC
# Enterococcus faecium [24] = assay: Potentiation of methicillin-induced antibacterial activity against Enterococcus faecium ATCC 700221 assessed as minimum modulatory concentration up to 32 uM measured after 16 hrs in presence of MIC/4 methicillin; type: functional; conditions: ATCC 700221, 16 h, read-out: MEC
# Enterococcus faecium [25] = assay: Potentiation of ciprofloxacin-induced antibacterial activity against Enterococcus faecium ATCC 700221 assessed as minimum modulatory concentration up to 32 uM measured after 16 hrs in presence of MIC/4 ciprofloxacin; type: functional; conditions: ATCC 700221, 16 h, read-out: MEC
# Enterococcus faecium [26] = assay: Potentiation of tetracycline-induced antibacterial activity against Enterococcus faecium ATCC 700221 assessed as minimum modulatory concentration up to 32 uM measured after 16 hrs in presence of MIC/4 tetracycline; type: functional; conditions: ATCC 700221, 16 h, read-out: MEC
# Enterococcus faecium [27] = assay: Potentiation of erythromycin-induced antibacterial activity against Enterococcus faecium ATCC 700221 assessed as minimum modulatory concentration up to 32 uM measured after 16 hrs in presence of MIC/4 erythromycin; type: functional; conditions: ATCC 700221, 16 h, read-out: MEC
# Pseudomonas aeruginosa [28] = assay: Potentiation of methicillin-induced antibacterial activity against Pseudomonas aeruginosa ATCC BAA-2108 assessed as minimum modulatory concentration up to 32 uM measured after 16 hrs in presence of MIC/4 methicillin; type: functional; conditions: ATCC BAA-2108, 16 h, read-out: MEC
# Pseudomonas aeruginosa [29] = assay: Potentiation of tetracycline-induced antibacterial activity against Pseudomonas aeruginosa ATCC BAA-2108 assessed as minimum modulatory concentration up to 32 uM measured after 16 hrs in presence of MIC/4 tetracycline; type: functional; conditions: ATCC BAA-2108, 16 h, read-out: MEC
# Pseudomonas aeruginosa [30] = assay: Potentiation of erythromycin-induced antibacterial activity against Pseudomonas aeruginosa ATCC BAA-2108 assessed as minimum modulatory concentration up to 32 uM measured after 16 hrs in presence of MIC/4 erythromycin; type: functional; conditions: ATCC BAA-2108, 16 h, read-out: MEC
# Escherichia coli [31] = assay: Potentiation of ciprofloxacin-induced antibacterial activity against Escherichia coli ATCC 43894 assessed as minimum modulatory concentration up to 32 uM measured after 16 hrs in presence of MIC/4 ciprofloxacin; type: functional; conditions: ATCC 43894, 16 h, read-out: MEC
# Escherichia coli [32] = assay: Potentiation of tetracycline-induced antibacterial activity against Escherichia coli ATCC 43894 assessed as minimum modulatory concentration up to 32 uM measured after 16 hrs in presence of MIC/4 tetracycline; type: functional; conditions: ATCC 43894, 16 h, read-out: MEC
# Escherichia coli [33] = assay: Potentiation of erythromycin-induced antibacterial activity against Escherichia coli ATCC 43894 assessed as minimum modulatory concentration up to 32 uM measured after 16 hrs in presence of MIC/4 erythromycin; type: functional; conditions: ATCC 43894, 16 h, read-out: MEC
Structure (SMILES),IC50 (Macrophage cell line [1]) [µM],inhibition (Macrophage cell line [2]),Activity (Macrophage cell line [4]),Activity (Macrophage cell line [5]),Activity (Klebsiella pneumoniae [6]),Activity (Enterococcus faecium [7]),Activity (Escherichia coli [8]),minimal effective concentration (Staphylococcus aureus [9]) [µM],minimal effective concentration (Staphylococcus aureus [10]) [µM],minimal effective concentration (Staphylococcus aureus [11]) [µM],minimal effective concentration (Staphylococcus aureus [12]) [µM],minimal effective concentration (Staphylococcus aureus [13]) [µM],minimal effective concentration (Streptococcus pyogenes [14]) [µM],minimal effective concentration (Streptococcus pyogenes [15]) [µM],minimal effective concentration (Streptococcus pyogenes [16]) [µM],minimal effective concentration (Streptococcus pyogenes [17]) [µM],minimal effective concentration (Streptococcus pyogenes [18]) [µM],minimal effective concentration (Klebsiella pneumoniae [19]) [µM],minimal effective concentration (Klebsiella pneumoniae [20]) [µM],minimal effective concentration (Klebsiella pneumoniae [21]) [µM],also measured
O=C(O)c1ccnc(Cc2ccccc2)c1O,> 100,inactive,Non-Toxic,Non-Toxic,Non-Toxic,Non-Toxic,Non-Toxic,> 32,> 32,> 32,> 32,> 32,> 32,> 32,> 32,> 32,> 32,> 32,> 32,> 32,inhibition (Macrophage cell line [3]): inactive; minimal effective concentration (Klebsiella pneumoniae [22]): > 32 µM; minimal effective concentration (Klebsiella pneumoniae [23]): > 32 µM; minimal effective concentration (Enterococcus faecium [24]): > 32 µM; minimal effective concentration (Enterococcus faecium [25]): > 32 µM; minimal effective concentration (Enterococcus faecium [26]): > 32 µM; minimal effective concentration (Enterococcus faecium [27]): > 32 µM; minimal effective concentration (Pseudomonas aeruginosa [28]): > 32 µM; minimal effective concentration (Pseudomonas aeruginosa [29]): > 32 µM; minimal effective concentration (Pseudomonas aeruginosa [30]): > 32 µM; minimal effective concentration (Escherichia coli [31]): > 32 µM; minimal effective concentration (Escherichia coli [32]): > 32 µM; minimal effective concentration (Escherichia coli [33]): > 32 µM
O=C(O)c1cc(-c2ccccc2)nc(-c2ccccc2)c1O,81.2,inactive,Non-Toxic,Non-Toxic,Non-Toxic,Non-Toxic,Non-Toxic,4,8,16,2,2,2,4,> 32,8,4,> 32,> 32,> 32,minimal effective concentration (Klebsiella pneumoniae [22]): > 32 µM; minimal effective concentration (Klebsiella pneumoniae [23]): > 32 µM; minimal effective concentration (Enterococcus faecium [24]): 2 µM; minimal effective concentration (Enterococcus faecium [25]): > 32 µM; minimal effective concentration (Enterococcus faecium [26]): 2 µM; minimal effective concentration (Enterococcus faecium [27]): 2 µM; minimal effective concentration (Pseudomonas aeruginosa [28]): 8 µM; minimal effective concentration (Pseudomonas aeruginosa [29]): > 32 µM; minimal effective concentration (Pseudomonas aeruginosa [30]): 8 µM; minimal effective concentration (Escherichia coli [31]): > 32 µM; minimal effective concentration (Escherichia coli [32]): > 32 µM; minimal effective concentration (Escherichia coli [33]): > 32 µM
O=C(O)c1cc(-c2ccc(F)cc2F)ccc1O [DIFLUNISAL],53,inactive,Non-Toxic,Non-Toxic,Non-Toxic,Non-Toxic,Non-Toxic,8,> 32,> 32,> 32,> 32,16,> 32,> 32,> 32,> 32,> 32,> 32,> 32,minimal effective concentration (Klebsiella pneumoniae [22]): > 32 µM; minimal effective concentration (Klebsiella pneumoniae [23]): > 32 µM; minimal effective concentration (Enterococcus faecium [24]): 16 µM; minimal effective concentration (Enterococcus faecium [25]): > 32 µM; minimal effective concentration (Enterococcus faecium [26]): > 32 µM; minimal effective concentration (Enterococcus faecium [27]): > 32 µM; minimal effective concentration (Pseudomonas aeruginosa [28]): > 32 µM; minimal effective concentration (Pseudomonas aeruginosa [29]): > 32 µM; minimal effective concentration (Pseudomonas aeruginosa [30]): > 32 µM; minimal effective concentration (Escherichia coli [31]): > 32 µM; minimal effective concentration (Escherichia coli [32]): > 32 µM; minimal effective concentration (Escherichia coli [33]): > 32 µM
